Test results reported in publication PMC7002129, “The structure of Photosystem I acclimated to far-red light illuminates an ecologically important acclimation process in photosynthesis” (Science Advances, 2020).
Values belong to the molecule of their own block, whether it stands above or below them.

Key:
[1] = molecular target: T1, FRL-PSI (far-red light-acclimated Photosystem I trimer) (Fischerella thermalis, UniProt G6FME9+G6FMF0); assay: cryo-EM structure ([…] Å); reversed-phase HPLC of extracted pigments; assay type: binding; conditions: presence shown by HPLC
T1 construct: gene psaA; native trimer from FRL-grown cells, DM-solubilised, sucrose gradients; 36 subunits (12 per monomer), ~1 MDa; with Photosystem I reaction center subunit II; Photosystem I reaction center subunit IV; Photosystem I reaction center subunit VIII; Photosystem I reaction center subunit XII; Photosystem I 4.8K protein

[2] = molecular target: T1, FRL-PSI (far-red light-acclimated Photosystem I trimer); assay: reversed-phase HPLC of extracted pigments; assay type: binding; conditions: native complex; site not assigned (modelled as beta-carotene)
[3] = molecular target: Far-red light-acclimated Photosystem I (FRL-PSI) monomer from Fischerella thermalis PCC 7521 (Fischerella thermalis PCC 7521) (UniProt G6FW50); assay: cryo-EM structure; single-particle cryo-EM of trimeric FRL-PSI isolated from FRL-grown F. thermalis; plunge-frozen in 300 mM tricine pH 8.0, 50 mM NaCl; 178,666 particles, C3 symmetry, global resolution 3.19 Å

Molecule: C=Cc1c(C=O)c2[n]3c1=CC1=NC(=Cc4c(C)c5c([n]4[Mg]3)C(=C3N=C(C=2)C(C)C3CCC(=O)OCC=C(C)CCCC(C)CCCC(C)CCCC(C)C)C(C(=O)OC)C5=O)C(CC)=C1C (stereo not shown) [Chl f]
- cryo-EM structure (3.19 Å); reversed-phase HPLC of extracted pigments ([1]; sites A20, A21, B30, B37 modelled as Chl f, assigned indirectly from environment): sites of Chl A20, Chl A21, Chl B30, and Chl B37, accounting for four

Molecule: CC1=C(/C=C/C(C)=C/C=C/C(C)=C/C=C/C=C(C)/C=C/C=C(C)/C=C/C2=C(C)C(=O)CCC2(C)C)C(C)(C)CCC1 [echinenone]
- reversed-phase HPLC of extracted pigments [2]: both complexes contain a mixture of β-carotene and echinenone

Molecule: CC1=C(/C=C/C(C)=C/C=C/C(C)=C/C=C/C=C(C)/C=C/C=C(C)/C=C/C2=C(C)CCCC2(C)C)C(C)(C)CCC1 [β-carotene]
- cryo-EM structure (3.19 Å); reversed-phase HPLC of extracted pigments ([1]; not distinguishable from echinenone in the map): all carotenoids are modeled as β-carotene (BCR)

- stoichiometry N [3]: 3
Molecule: Far-red light-acclimated Photosystem I (FRL-PSI) monomer from Fischerella thermalis PCC 7521 (from UniProt G6FW50 1-81; G6FQU3 1-72) (complex)
